From publication PMC12775823, “Glucosylceramide regulates depression through activating peroxisome proliferator-activated receptor gamma in dorsal striatum” (Theranostics, 2026)
Where a name gives a salt, the structure may show the parent alone.

Assays:
D2-Pparg^f/f mice = experiment: Behavioral tests in D2-Pparg f/f mice after intra-dorsal striatal microinfusion; type: in vivo; conditions: UNC 10 μM, 1 μL/side
Protocol: For intracranial injection, mice were surgically implanted with sterilized guide cannulae in dorsal striatum. Intra-dorsal striatal injection of PDMP (100 μM, 1 μL/injection), pioglitazone (100 μM, 1 μL/injection), UNC (10 μM, 1 μL/injection) was performed 30 min before behavioral test. Mice were intraperitoneally injected with CNO (1 mg/kg/d) before behavioral test.
(§1) Elevated plus maze test (EPMT).
(§2) Light-dark Transition test (LDT).
(§3) Sucrose preference test (SPT).
(§4) Forced swimming test (FST).

PPARγ target genes = experiment: qRT-PCR of PPARγ target genes in PPARγ-overexpressing N2a cells; type: cell-based; conditions: 0.1, 1 and 10 μM
CRS-induced mice = experiment: Behavioral tests (OFT, EPMT, LDT, SPT, FST) in chronic restraint stress mice, intra-dorsal striatal infusion; type: in vivo
Protocol: For intracranial injection, mice were surgically implanted with sterilized guide cannulae in dorsal striatum. […] Mice were intraperitoneally injected with CNO (1 mg/kg/d) before behavioral test.
Chronic restraint stress (CRS). For the CRS protocol, male C57BL/6J mice (8-10 weeks old) were obtained from Charles River Laboratories (Beijing, China). Mice were individually placed into well-ventilated 50 mL conical restraint tube (suitable for mice weighing 20-25 g) with multiple holes for 4 h daily between 10:00 AM and 2:00 PM to minimize circadian rhythm variations. The restraint stress procedure was conducted for 14 consecutive days. Then, all behavioral test were performed between 10:00 AM and 18:00 PM.
as §1, §2, §3, §4

[1] = test system: depression and bipolar disorder; design: method as in PMID 30699881; conditions: clinical; ref [10]; cited from earlier work
PPARγ = test system: T1, PPARγ; experiment: PPARγ mRNA, protein and transcriptional activity in dorsal striatum of CRS-induced mice; type: in vivo
T1 construct: from tissue; host or cells: mouse dorsal striatum
From the text: Dorsal striatal tissues were processed in accordance with the RNA isolation kit's instructions (RC102/RC112; Vazyme Biotech Co.,Ltd), mRNA was reverse transcribed using HiScript® III All-in-one RT SuperMix (Vazyme Biotech Co.,Ltd), and cDNA was amplified using SYBR Green (Vazyme Biotech Co.,Ltd). The 2^-ΔΔCt method was used to analyze gene expression, and the relative level of the target gene was normalized to Gapdh. The primer sequences can be found in Supplemental materials Table S1.
Brain tissues were cut into small pieces and then centrifuged at 13,000 g for 15 min at 4 °C. Supernatants were collected, and proteins concentrations were determined by BCA assay. Samples were denatured at 95 °C for 5 min and subsequently stored at -80 °C for further use. Protein samples were loaded onto 10% SDS-PAGE and transferred on PVDF membranes. After being blocked with 5% nonfat dry milk in Tris-buffered saline with 0.1% Tween-20 for 1.5 h, the PVDF membranes were incubated with corresponding primary antibodies overnight at 4 °C. Membranes were then incubated with HRP-conjugated secondary antibodies for 1 h at room temperature and measured with chemiluminescence imaging system (ChemiScope; Clinx, China).
Nuclear extracts were prepared from N2a cells using a nuclear extraction kit according to the manufacturer protocol. The binding reaction between PPARγ and PPRE was carried out at 4°C for 16 h using 3 μg of nuclear extracts. The binding activity between PPARγ and PPRE was indicated by the change of optical density (OD) at 405 nm, and an enzyme reaction was measured by HRP-conjugated antibody in complex of PPRE/ PPARγ/antibody.

[2] = LC-MS of GlcCer levels in dorsal striatum of CRS-induced mice; type: in vivo; conditions: intra-dorsal striatum infusion of pioglitazone, GlcCer or combination
Protocol: The procedure for the extraction of sphingolipids was established according to the LIPID MAPS protocol with modifications. Briefly, dorsal striatal tissues were added 0.5 mL of MeOH, 0.25 mL of CHCl3 and 7.5 μL of internal standards cocktail (2.5 μM). For sphingolipidomics, 5 μL of internal standards mixture (LM6002, Avanti polar lipids) was added. The mixture was then ultrasonicated for 45 s at room temperature and incubation at 48°C overnight. To avoid potentially interfering glycerolipids, 75 μL of KOH in MeOH (1M) was added, followed by incubation in a heat block at 200 rpm for 2 h at 37 °C. After neutralization, a four-step extraction process was performed to obtain SPL extract for analysis. The supernatant was transferred to a new Eppendorf tube and the resides were added l mL of MeOH and 2 mL of CHCl3, followed by centrifugation at 3800 rpm for 8 min. […] Sphingolipidomics were measured with ultra-high-performance liquid chromatography (UPLC) coupled with hybrid Quadrupole-Orbitrap high resolution mass spectrometry (Q-Exactive-HRMS). […] For […] quantitation, brain tissues were quantified by UPLC-MS/MS using a Q-Exactive-HRMS with UPLC. […] Quantification of […] with various fatty acid chain lengths were achieved using the calibration curve of each GlcCer species with closest number of chain length. […]

D2-Ugcg^f/f mice = experiment: Behavioral tests in D2-Ugcg f/f mice after intra-dorsal striatal microinfusion; type: in vivo; conditions: pioglitazone 1 μM, 1 μL per side
GCS = test system: T2, GCS; experiment: GCS activity in dorsal striatum of CRS-induced mice; type: in vivo; conditions: intra-dorsal striatal PDMP
T2 construct: from tissue; host or cells: mouse dorsal striatum

[3] = test system: D2-MSNs in dorsal striatum of D2-Ugcg^f/f mice; experiment: DREADD (AAV-hM3Dq) activation of D2-MSNs, c-Fos and behavioral tests; conditions: CNO 1 mg/kg, i.p.
Protocol: Open field test (OFT). […] Mice were gently placed in the center and allowed to explore the area for 5 min. The total distance travelled and time spent in the center (20 × 20 cm^2) were recorded using EthoVision version 7.0 software (Noldus Information Technology, Netherlands).
Elevated plus maze test (EPMT). The apparatus consisted of two open arms (30 cm × 5 cm) and two closed arms (30 cm × 5 cm × 15 cm) extending from a central platform (5 cm × 5 cm), elevated 50 cm above the floor. Mice were placed on the central platform facing one of the open arms and allowed to explore the maze for 5 min. Behavior was recorded using a video camera positioned above the maze in conjunction with Anymaze tracking software (Stoelting Co.; Wood Dale, IL, USA).
Forced swimming test (FST). Each mouse was placed individually into a water-filled cylinder maintained at 23-25 °C and allowed to swim for 6 min. The first 2 min were considered an acclimation period, and data from this period were not included in the analysis. During the remaining 4 min, the behavior of the mice was recorded using EthoVision version 7.0 software (Noldus Information Technology, Netherlands).
D2-Cre or D2-Ugcg^f/f mice were bilaterally injected with AAV-hM3Dq into the dorsal striatum (AP +0.8 mm, ML ±1.5 mm, DV -3.0 mm). Following surgery, mice were given 3 weeks to express the virus before starting behavioral tests. Prior to each behavioral test, mice received an injection of Clozapine N-oxide (CNO; 1 mg/kg, i.p.; Sigma-Aldrich, USA) 30 min before the testing session.

[4] = CRS mice, PDMP 100 μM, 1 μL/side
[5] = D2-Ugcg^f/f mice with AAV-hM3Dq

Clc1cccc(N2CCN(CCCOc3ccc4scnc4c3)CC2)c1Cl [UNC, UNC9995]
reductions in the OFT, EPMT, LDT, SPT, and FST (D2-Pparg^f/f mice): effectively reversed

CCc1ccc(CCOc2ccc(CC3SC(=O)NC3=O)cc2)nc1 (centres unmarked) [pioglitazone, Pioglitazone hydrochloride]
expression of Adipoq and Leptin (PPARγ target genes): robustly upregulated | expression of Angptl4 (PPARγ target genes): significantly increased | expression of adipogenesis-related genes (Srebp-1c, Adrp, Fabp4, Fasn, Cd36) (PPARγ target genes): strongly induced | stress-induced depression-like behaviors (overall) (CRS-induced mice; CRS mice, administration of GlcCer, pioglitazone or combined): reverses | symptoms of depression and bipolar disorder [1]: proven effective | PPARγ mRNA or protein expression (PPARγ; intra-dorsal striatum pioglitazone, GlcCer or combination): neither pioglitazone, GlcCer, nor their combination altered | GlcCer levels in the dorsal striatum (LC-MS) [2]: did not alter | anxiety- and depression-like behaviors in the OFT, EPMT, LDT, SPT, and FST (D2-Ugcg^f/f mice): effectively reversed

CCCCCCCCCC(=O)N[C@@H](CN1CCOCC1)[C@@H](O)c1ccccc1.Cl [PDMP, (-)-L-threo-PDMP hydrochloride]
immobility time in the FST (CRS-induced mice; [4]): reduced | sucrose preference in the SPT (CRS-induced mice; [4]): restored | time spent in light area in the LDT (CRS-induced mice; [4]): increased | time spent in open arms in the EPMT (CRS-induced mice; [4]): increased | time spent in the center area in the OFT (CRS-induced mice; [4]): increased | anxiety- and depression-like behaviors following CRS (CRS-induced mice; PDMP 100 μM, 1 μL/side, intra-dorsal striatum): significantly ameliorated | GCS activity in the dorsal striatum (GCS): significantly enhanced | PPARγ activity in the dorsal striatum (PPARγ; PDMP treatment): significantly enhanced | PPARγ mRNA or protein expression (PPARγ; PDMP treatment): did not alter

C[N+]1([O-])CCN(C2=Nc3cc(Cl)ccc3Nc3ccccc32)CC1 [CNO, Clozapine-N-oxide]
expression of c-Fos ([3]; AAV-hM3Dq-injected mice): significantly increased | immobility time in the FST [3, 5]: lower | time in the center area in the OFT [3, 5]: more time | time in the light room in the LDT [3, 5]: more time | time in the open arms in the EPMT [3, 5]: more time
